For the assay, the system named is contact dermatitis from poison sumac. The assay is described as follows: Case-study: contact dermatitis from poison sumac. Type of assay: in vivo, human. The conditions noted are these: used by the patient before Composition I. From the text:
In one case-study, a patient had contact dermatitis from poison sumac which was on the volar surfaces of both arms from the hand to the elbow. […] They continued application of the Composition I, TID (three daily doses), and by four days, their skin had healed.

Consider `C[C@]12CCC(=O)C=C1CC[C@@H]1[C@@H]2C(=O)C[C@@]2(C)[C@H]1CC[C@]2(O)C(=O)CO` [cortisone], for which the “relief from earlier topical treatments” value was “without relief”.

Source of the values: patent US20120201915A1, “THERAPEUTIC COMPOSITION” (priority 2009, published 2012).
